Test [1] deals with human monocytic leukemia U937 cells. Description: necroptosis assay in U937 cells. The format is cell-based. Particulars: viability by cellular ATP (Cell Titer-Glo); for IC50: Homo sapiens, U-937, U937 cells, read-out: pIC50, inhibited necrosis in U937 cells (converted). In outline:
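Necroptosis was induced in human U937 or mouse L929 cells, and viability was quantified as cellular ATP with Cell Titer-Glo. Data are means±standard deviation.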
In general terms: ATP-based viability assays read luminescence as a measure of living cells.

Test [2] deals with mouse L929 fibrosarcoma cells. Description: necroptosis assay in L929 cells. To be noted: viability by cellular ATP (Cell Titer-Glo), read-out: pIC50, inhibited necrosis in L929 cells (converted). Type of test: cell-based. The procedure: The efficacy of RIP1 inhibitors can be tested […] in vitro using a human monocytic leukemia U937 or mouse L929 fibrosarcoma cells in a necroptosis assay. As determined using the method described in S. He et al., Cell, 137(6):1100-1111 (2009) and International Patent Appln. No. PCT/IB2014/059004, now, International Patent Appln. Pub.
Viability was measured by quantitating cellular levels of ATP using the Cell Titer-Glo kit. All data are means±standard deviation of the mean.

Test [3] has as its target T1, RIP1 kinase (Homo sapiens, UniProt Q13546).
T1 sequence (Q13546 1-375 limits assumed): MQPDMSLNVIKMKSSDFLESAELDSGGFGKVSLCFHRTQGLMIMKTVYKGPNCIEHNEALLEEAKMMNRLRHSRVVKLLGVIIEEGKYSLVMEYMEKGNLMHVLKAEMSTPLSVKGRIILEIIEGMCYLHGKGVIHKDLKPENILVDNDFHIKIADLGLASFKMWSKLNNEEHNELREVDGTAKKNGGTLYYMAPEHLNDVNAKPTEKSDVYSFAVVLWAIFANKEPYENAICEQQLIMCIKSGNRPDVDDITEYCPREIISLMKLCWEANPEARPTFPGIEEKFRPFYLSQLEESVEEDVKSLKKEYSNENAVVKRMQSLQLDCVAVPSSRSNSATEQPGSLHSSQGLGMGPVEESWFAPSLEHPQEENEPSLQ
Kind of test: fluorescent polarization based binding assay. To be noted: mean of a minimum of 2 experiments. The source says:
A fluorescent polarization based binding assay was used to assess the activity of the compounds of this invention, the details of which are disclosed in International Patent Appln. No. PCT/IB2014/059004, now, International Patent Appln. Pub.

The text below walks through data of patent publication US20190345138A1, “HETEROCYCLIC AMIDES AS KINASE INHIBITORS” (GlaxoSmithKline Intellectual Property Development Limited, priority 2016, published 2019).

Several values for one entry are separate records, joined by “and”; a condition that tells them apart may be missing. Equal entries are not always repeated. Where two headings read alike, the source gives them in different places.

For `O=C(C1CCN(c2nccc(SCc3ccccc3)n2)CC1)N1N=CC[C@H]1c1ccccc1` [Example 1, (S)-(1-(4-(benzylthio)pyrimidin-2-yl)piperidin-4-yl)(5-phenyl-4,5-dihydro-1H-pyrazol-1-yl)methanone], the IC50 in test [1] and in test [2] (L929 cells) was 1 to 100 nM in each case.

Turning to `N#Cc1cc(N2CCC(C(=O)N3N=CC[C@H]3c3ccccc3)CC2)ncn1` [Example 14, (S)-6-(4-(5-phenyl-4,5-dihydro-1H-pyrazole-1-carbonyl)piperidin-1-yl)pyrimidine-4-carbonitrile], the IC50 in test [3] was 1 to 31.6 nM and 1 to 10 nM; in test [1], 1 to 100 nM; in test [2] (L929 cells) it was 1 to 100 nM.

`Nc1nc(N2CCC(C(=O)N3N=CC[C@H]3c3ccccc3)CC2)ncc1F` [Example 27, (S)-(1-(4-amino-5-fluoropyrimidin-2-yl)piperidin-4-yl)(5-phenyl-4,5-dihydro-1H-pyrazol-1-yl)methanone]: the IC50 in test [3] is 1 to 31.6 nM and 1 to 10 nM; in test [1], 1 to 100 nM; in test [2] (L929 cells) it was 1 to 100 nM.

Turning to `NC(=O)c1ccnc(N2CCC(C(=O)N3N=CC[C@H]3c3ccccc3)CC2)n1` [Example 28, (S)-2-(4-(5-phenyl-4,5-dihydro-1H-pyrazole-1-carbonyl)piperidin-1-yl)pyrimidine-4-carboxamide], the IC50 is 1 to 31.6 nM and 1 to 10 nM in test [3]; 1 to 100 nM in test [1]; 1 to 100 nM in test [2] (L929 cells).

Consider `CC(=O)Nc1ccnc(N2CCC(C(=O)N3N=CC[C@H]3c3ccccc3)CC2)n1` [Example 36, (S)-N-(2-(4-(5-phenyl-4,5-dihydro-1H-pyrazole-1-carbonyl)piperidin-1-yl)pyrimidin-4-yl)acetamide], for which the IC50 was 1 to 31.6 nM and 1 to 10 nM in test [3]; 1 to 100 nM in test [1]; 1 to 100 nM in test [2] (L929 cells).

For the compound `O=C(C1CCN(c2ncc3cn[nH]c3n2)CC1)N1N=CC[C@H]1c1ccccc1` [Example 52, (S)-(1-(1H-pyrazolo[3,4-d]pyrimidin-6-yl)piperidin-4-yl)(5-phenyl-4,5-dihydro-1H-pyrazol-1-yl)methanone], the IC50 in test [3] is 1 to 31.6 nM and 1 to 10 nM; in test [1], 1 to 100 nM; in test [2] (L929 cells), 1 to 100 nM.

For the compound `Cc1nnc(N2CCC(C(=O)N3N=CC[C@H]3c3cc(F)cc(F)c3)CC2)o1` [Example 77, (S)-(5-(3,5-difluorophenyl)-4,5-dihydro-1H-pyrazol-1-yl)(1-(5-methyl-1,3,4-oxadiazol-2-yl)piperidin-4-yl)methanone], the “pIC50, inhibited necrosis in U937 cells” value in test [1] (U937 cells) was around 7.2. In test [2] (L929, L929 cells), the IC50 is around 3160 nM.

Regarding `Nc1nc(N2CCC(C(=O)N3N=CC[C@H]3c3cc(F)cc(F)c3)CC2)ncc1F` [Example 81, (S)-(1-(4-amino-5-fluoropyrimidin-2-yl)piperidin-4-yl)(5-(3,5-difluorophenyl)-4,5-dihydro-1H-pyrazol-1-yl)methanone], the IC50 in test [3] was 1 to 31.6 nM and 1 to 10 nM; in test [1], 1 to 100 nM; in test [2] (L929 cells) it was 1 to 100 nM.

`NC(=O)c1ccnc(N2CCC(C(=O)N3N=CC[C@H]3c3cc(F)cc(F)c3)CC2)n1` [Example 83, (S)-2-(4-(5-(3,5-difluorophenyl)-4,5-dihydro-1H-pyrazole-1-carbonyl)piperidin-1-yl)pyrimidine-4-carboxamide]: the IC50 in test [3] was 1 to 31.6 nM and 1 to 10 nM; in test [1] it was 1 to 100 nM; in test [2] (L929 cells), 1 to 100 nM.

For the compound `O=C(C1CCN(c2ncc3cn[nH]c3n2)CC1)N1N=CC[C@H]1c1cc(F)cc(F)c1` [Example 86, (S)-(1-(1H-pyrazolo[3,4-d]pyrimidin-6-yl)piperidin-4-yl)(5-(3,5-difluorophenyl)-4,5-dihydro-1H-pyrazol-1-yl)methanone], the IC50 in test [1] and in test [2] (L929 cells) was 1 to 100 nM each time.

As for `N#Cc1nccc(N2CCC(C(=O)N3N=CC[C@H]3c3cc(F)cc(F)c3)CC2)n1` [Example 89, (S)-4-(4-(5-(3,5-difluorophenyl)-4,5-dihydro-1H-pyrazole-1-carbonyl)piperidin-1-yl)pyrimidine-2-carbonitrile], the IC50 in test [1] is 1 to 100 nM; in test [2] (L929, L929 cells) it was 1 to 100 nM.

As for `NC(=O)c1ccnc(N2CCC(C(=O)N3N=CC[C@H]3c3cc(F)ccc3F)CC2)n1` [Example 102, (S)-2-(4-(5-(2,5-difluorophenyl)-4,5-dihydro-1H-pyrazole-1-carbonyl)piperidin-1-yl)pyrimidine-4-carboxamide], the IC50 in test [3] is 1 to 31.6 nM and 1 to 10 nM; in test [1] it was 1 to 100 nM; in test [2] (L929 cells), 1 to 100 nM.

Consider `N#Cc1cc(N2CCC(C(=O)N3N=CC[C@H]3c3cc(F)ccc3F)CC2)ncn1` [Example 104, (S)-6-(4-(5-(2,5-difluorophenyl)-4,5-dihydro-1H-pyrazole-1-carbonyl)piperidin-1-yl)pyrimidine-4-carbonitrile], for which the IC50 in test [3] was 1 to 31.6 nM and 1 to 10 nM; in test [1] it was 1 to 100 nM; in test [2] (L929 cells), 1 to 100 nM.

As for `CC(=O)Nc1ccnc(N2CCC(C(=O)N3N=CC[C@H]3c3cc(F)ccc3F)CC2)n1` [Example 118, (S)—N-(2-(4-(5-(2,5-difluorophenyl)-4,5-dihydro-1H-pyrazole-1-carbonyl)piperidin-1-yl)pyrimidin-4-yl)acetamide], the IC50 was 1 to 31.6 nM in test [3], 1 to 100 nM in test [1] and 1 to 100 nM in test [2] (L929 cells).

With `O=C(C1CCN(c2ncc(F)c(OCCO)n2)CC1)N1N=CC[C@H]1c1ccccc1` [Example 155, (S)-(1-(5-fluoro-4-(2-hydroxyethoxy)pyrimidin-2-yl)piperidin-4-yl)(5-phenyl-4,5-dihydro-1H-pyrazol-1-yl)methanone], the IC50 in test [3] was 1 to 31.6 nM; in test [1] it was 1 to 100 nM.

With `C#Cc1cc(N2CCC(C(=O)N3N=CC[C@H]3c3ccccc3)CC2)ncn1` [Example 156, (S)-(1-(6-ethynylpyrimidin-4-yl)piperidin-4-yl)(5-phenyl-4,5-dihydro-1H-pyrazol-1-yl)methanone], the IC50 was 1 to 31.6 nM and 1 to 10 nM in test [3]; 1 to 100 nM in test [1]; 1 to 100 nM in test [2] (L929 cells).

Consider `C#Cc1cc(N2CCC(C(=O)N3N=CC[C@H]3c3cc(F)cc(F)c3)CC2)ncn1` [Example 157, (S)-(5-(3,5-difluorophenyl)-4,5-dihydro-1H-pyrazol-1-yl)(1-(6-ethynylpyrimidin-4-yl)piperidin-4-yl)methanone], for which the IC50 in test [3] was 1 to 31.6 nM and 1 to 10 nM; in test [1], 1 to 100 nM.

On to `C#Cc1cc(N2CCC(C(=O)N3N=CC[C@H]3c3cccc(C#N)c3)CC2)ncn1` [Example 158, (S)-3-(1-(1-(6-ethynylpyrimidin-4-yl)piperidine-4-carbonyl)-4,5-dihydro-1H-pyrazol-5-yl)benzonitrile], for which the values for the IC50 in test [3] and in test [1] were 1 to 31.6 nM and 1 to 100 nM, respectively.

For the compound `O=C(O)c1ncnc(N2CCC(C(=O)N3N=CC[C@H]3c3ccccc3)CC2)c1F` [Example 159, (S)-5-fluoro-6-(4-(5-phenyl-4,5-dihydro-1H-pyrazole-1-carbonyl)piperidin-1-yl)pyrimidine-4-carboxylic acid], the IC50 in test [3] is around 50.1 nM; in test [2] (L929 cells) it was around 251 nM.

In the case of `NC(=O)c1nc(N2CCC(C(=O)N3N=CC[C@H]3c3cncc(F)c3)CC2)ncc1F` [Example 161, (S)-5-fluoro-2-(4-(5-(5-fluoropyridin-3-yl)-4,5-dihydro-1H-pyrazole-1-carbonyl)piperidin-1-yl)pyrimidine-4-carboxamide], the results for the IC50 in test [3] and in test [1] were 1 to 31.6 nM and 1 to 100 nM, respectively.

In the case of `NC(=O)c1nc(N2CCC(C(=O)N3N=CC[C@H]3c3ccccc3)CC2)ncc1F` [Example 162, (S)-5-fluoro-2-(4-(5-phenyl-4,5-dihydro-1H-pyrazole-1-carbonyl)piperidin-1-yl)pyrimidine-4-carboxamide], the IC50 in test [3] was 1 to 31.6 nM and 1 to 10 nM; in test [1], 1 to 100 nM; in test [2] (L929 cells), 1 to 100 nM.

For the compound `O=C(O)c1ncnc(N2CCC(C(=O)N3N=CC[C@H]3c3cc(F)cc(F)c3)CC2)c1F` [Example 164, (S)-6-(4-(5-(3,5-difluorophenyl)-4,5-dihydro-1H-pyrazole-1-carbonyl)piperidin-1-yl)-5-fluoropyrimidine-4-carboxylic acid], the IC50 in test [3] is 1 to 31.6 nM; in test [1], 1 to 100 nM.

Regarding `NC(=O)c1ncnc(N2CCC(C(=O)N3N=CC[C@H]3c3cc(F)cc(F)c3)CC2)c1F` [Example 165, (S)-6-(4-(5-(3,5-difluorophenyl)-4,5-dihydro-1H-pyrazole-1-carbonyl)piperidin-1-yl)-5-fluoropyrimidine-4-carboxamide], the IC50 in test [3] is 1 to 31.6 nM and 1 to 10 nM; in test [1], 1 to 100 nM.

As for `NC(=O)Cc1nc(N2CCC(C(=O)N3N=CC[C@H]3c3ccccc3)CC2)ncc1F` [Example 169, (S)-2-(5-fluoro-2-(4-(5-phenyl-4,5-dihydro-1H-pyrazole-1-carbonyl)piperidin-1-yl)pyrimidin-4-yl)acetamide], the IC50 in test [3] was 1 to 31.6 nM and 1 to 10 nM; in test [1] it was 1 to 100 nM.
